Results from US8648066B2 (Exelixis, Inc., priority 2009, dated 2014).

Molecular target: mTOR/GbL/Raptor (mTORC1) (Homo sapiens, UniProt P42345)
Assay: mTOR/GbL/Raptor (mTORC1) ELISA assay
Assay type: biochemical
Settings: phosphorylation of 4E-BP1; 0.2 nM mTORC1, 10 μM ATP; read-out: IC50 in this assay (mTORC1 ELISA)
Summary of the method: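 ELISA read-out: phospho-4E-BP1 captured on Ni-chelate plates and detected with anti-phospho antibody plus HRP-anti-IgG luminescence. The kinase step ran 120 min at ambient temperature with 0.2 nM human mTORC1, 10 µM ATP, 50 nM His-4E-BP1, 10 mM MnCl2, pH 7.2 HEPES.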

IC50 [nM] | Structure (SMILES)
≤ 10 | Cc1nc(CNCCF)nc(N2CCOc3ccc(-c4cnc5sc(N)nc5c4)cc3C2)c1C(C)C [Example 680, 6-{4-[2-{[(2-fluoroethyl)amino]methyl}-6-methyl-5-(1-methylethyl)pyrimidin-4-yl]-2,3,4,5-tetrahydro-1,4-benzoxazepin-7-yl}[1,3]thiazolo[5,4-b]pyridin-2-amine]
50 to 250 | Cc1nc2ccc(-c3ccc4c(c3)CN(c3ncnc5cc(C(F)(F)F)ccc35)CCO4)cc2[nH]1 [Example 36, 7-(2-methyl-1H-benzimidazol-6-yl)-4-[7-(trifluoromethyl)quinazolin-4-yl]-2,3,4,5-tetrahydro-1,4-benzoxazepine]
250 to 1000 | CCc1nc(CN(C)C)nc(N2CCOc3ccc(-c4cnc5[nH]c(C)nc5c4)cc3C2)c1C [Example 344, 1-{4-ethyl-5-methyl-6-[7-(2-methyl-3H-imidazo[4,5-b]pyridin-6-yl)-2,3-dihydro-1,4-benzoazepin-4(5H)-yl]pyrimnidin-2-yl}-N,N-dimethylmethanamine]
≤ 10 | CCc1nc2cc(-c3ccc4c(c3)CN(c3ncnc5c3CC(C)(C)CC5)CCO4)cnc2[nH]1 [Example 220, 4-(6,6-dimethyl-5,6,7,8-tetrahydroquinazolin-4-yl)-7-(2-ethyl-3H-imidazo[4,5-b]pyridin-6-yl)-2,3,4,5-tetrahydro-1,4-benzoxazepine]
1000 to 2000 | Cc1c(NCCC2CCCN2C)ncnc1N1CCOc2ccc(-c3cnc4nc(C5CC5)[nH]c4c3)cc2C1 (stereo not drawn) [Example 534, 6-[7-(2-cyclopropyl-1H-imidazo[4,5-b]pyridin-6-yl)-2,3-dihydro-1,4-benzoxazepin-4(5H)-yl]-5-methyl-N-[2-(1-methylpyrrolidin-2-yl)ethyl]pyrimidin-4-amine]
≤ 10 | Cc1nc2ncc(-c3ccc4c(c3)CN(c3ncnc5c3CC(C)(C)C=C5)CCO4)cc2[nH]1 [Example 478, 4-(6,6-dimethyl-5,6-dihydroquinazolin-4-yl)-7-(2-methyl-1H-imidazo[4,5-b]pyridin-6-yl)-2,3,4,5-tetrahydro-1,4-benzoxazepine]
250 to 1000 | CCCc1c(C)nc(CN(C)C)nc1N1CCOc2ccc(-c3ccc4nc(C)[nH]c4c3)cc2C1 [Example 653, N,N-dimethyl-1-{4-methyl-6-[7-(2-methyl-1H-benzimidazol-6-yl)-2,3-dihydro-1,4-benzoxazepin-4(5H)-yl]-5-propylpyrimidin-2-yl}methanamine]
50 to 250 | CC1(C)CCc2ncnc(N3CCOc4ccc(-c5cnc(N)c(S(=O)(=O)NC6CCNCC6)c5)cc4C3)c2C1 [Example 398]
≤ 10 | Cc1nc2ccc(-c3ccc4c(c3)CN(c3ncnc(C)c3Cc3ccc(F)cc3)CCO4)cc2[nH]1 [Example 79, 4-{5-[(4-fluorophenyl)methyl]-6-methylpyrimidin-4-yl}-7-(2-methyl-1H-benzimidazol-6-yl)-2,3,4,5-tetrahydro-1,4-benzoxazepine]
≥ 2000 | COC(=O)Nc1nc2ccc(-c3ccc4c(c3)CN(c3ncnc5[nH]ccc35)CCO4)cc2[nH]1 [Example 110, methyl {6-[4-(7H-pyrrolo[2,3-d]pyrimidin-4-yl)-2,3,4,5-tetrahydro-1,4-benzoxazepin-7-yl]-1H-benzimidazol-2-yl}carbamate]
≤ 10 | CC1(C)C=Cc2ncnc(N3CCOc4ccc(-c5cnc6nc(C7CC7)[nH]c6c5)cc4C3)c2C1 [Example 545, 7-(2-cyclopropyl-1H-imidazo[4,5-b]pyridin-6-yl)-4-(6,6-dimethyl-5,6-dihydroquinazolin-4-yl)-2,3,4,5-tetrahydro-1,4-benzoxazepine]
10 to 50 | CC1(C)CCc2ncnc(N3CCOc4ccc(-c5cnc(N)c(S(=O)(=O)NC(C)(C)CN)c5)cc4C3)c2C1 [Example 403, 2-amino-N-(2-amino-1,1-dimethylethyl)-5-[4-(6,6-dimethyl-5,6,7,8-tetrahydroquinazolin-4-yl)-2,3,4,5-tetrahydro-1,4-benzoxazepin-7-yl]pyridine-3-sulfonamide]
50 to 250 | CN1CC[C@@H](NS(=O)(=O)c2cc(-c3ccc4c(c3)CN(c3ncnc5c3CC(C)(C)CC5)CCO4)cnc2N)C1 [Example 385, 2-amino-5-[4-(6,6-dimethyl-5,6,7,8-tetrahydroquinazolin-4-yl)-2,3,4,5-tetrahydro-1,4-benzoxazepin-7-yl]-N-[(3R)-1-methylpyrrolidin-3-yl]pyridine-3-sulfonamide]
50 to 250 | Cc1nc2ncc(-c3ccc4c(c3)CN(c3ncnc(C)c3Br)CCO4)cc2[nH]1 [Example 468, 4-(5-bromo-6-methylpyrimidin-4-yl)-7-(2-methyl-1H-imidazao[4,5-b]pyridin-6-yl)-2,3,4,5-tetrahydro-1,4-benzoxazepine]
≤ 10 | Cc1nc2ncc(-c3ccc4c(c3)CN(c3nc(CNC5CCCC5)nc5c3CC(C)(C)CC5)CCO4)cc2[nH]1 [Example 598, N-({6,6-dimethyl-4-[7-(2-methyl-1H-imidazo[4,5-b]pyridin-6-yl)-2,3-dihydro-1,4-benzoxazepin-4(5H)-yl]-5,6,7,8-tetrahydroquinazolin-2-yl}methyl)cyclopentanamine]
10 to 50 | CC1(C)CCc2ncnc(N3CCOc4ccc(-c5cnc(N)c(S(=O)(=O)N6CC(O)C6)c5)cc4C3)c2C1 [Example 315, 1-({2-amino-5-[4-(6,6-dimethyl-5,6,7,8-tetrahydroquinazolin-4-yl)-2,3,4,5-tetrahydro-1,4-benzoxazepin-7-yl]pyridin-3-yl}sulfonyl)azetidin-3-ol]
50 to 250 | Cc1nc2ccc(-c3ccc4c(c3)CN(c3ncnc5c3CCN(Cc3ccccc3)C5)CCO4)cc2[nH]1 [Example 60, 7-(2-methyl-1H-benzimidazol-6-yl)-4-[7-(phenylmethyl)-5,6,7,8-tetrahydropyrido[3,4-d]pyrimidin-4-yl]-2,3,4,5-tetrahydro-1,4-benzoxazepine]
≥ 2000 | COc1ccc2c(N3CCOc4ccc(-c5ccc(OC)c(OC)c5)cc4C3)nc(CN(C)C)nc2c1 [Example 333, 1-[4-{7-[3,4-bis(methyloxy)phenyl]-2,3-dihydro-1,4-benzoxazepin-4(5H)-yl}-7-(methyloxy)quinazolin-2-yl]-N,N-dimethylmethanamine]
250 to 1000 | COc1ccc2c(N3CCOc4ccc(-c5ccc6[nH]c(C)nc6c5)cc4C3)nc(CN(C)C)nc2c1 [Example 659, N,N-dimethyl-1-{4-[7-(2-methyl-1H-benzimidazol-5-yl)-2,3-dihydro-1,4-benzxazepin-4(5H)-yl]-7-(methyloxy)quinazolin-2-yl}methanamine]
10 to 50 | COCCNCc1nc2c(c(N3CCOc4ccc(-c5ccc6nc(C)[nH]c6c5)cc4C3)n1)CC(C)(C)CC2 [Example 585, N-({6,6-dimethyl-4-[7-(2-methyl-1H-benzimidazol-6-yl)-2,3-dihydro-1,4-benzoxazepin-4(5H)-yl]-5,6,7,8-tetrahydroquinazolin-2-yl}methyl)-2-(methyloxy)ethanamine]
50 to 250 | COc1cc2ncnc(N3CCOc4ccc(-c5ccc6nc(C)[nH]c6c5)cc4C3)c2cc1Br [Example 43, 4-[6-bromo-7-(methyloxy)quinazlolin-4-yl]-7-(2-methyl-1H-benzimidazol-6-yl)-2,3,4,5-tetrahydro-1,4-benzoxazepine]
50 to 250 | COc1cc2nccc(N3CCOc4ccc(-c5ccc(-c6ncc[nH]6)cc5)cc4C3)c2cc1OC [Example 272, 4-[6,7-bis(methyloxy)quinolin-4-yl]-7-[4-(1H-imidazol-2-yl)phenyl]-2,3,4,5-tetrahydro-1,4-benzoxazepine]
250 to 1000 | CCNc1nc2ccc(-c3ccc4c(c3)CN(c3nc(C)nc5cc(OC)c(OC)cc35)CCO4)cc2[nH]1 [Example 271, N-ethyl-6-{4-[2-methyl-6,7-bis(methyloxy)quinazolin-4-yl]-2,3,4,5-tetrahydro-1,4-benzoxazepin-7-yl}-1H-benzimidazol-2-amine]
≤ 10 | CC1(C)C=Cc2ncnc(N3CCOc4ccc(-c5ccc(-c6ncc[nH]6)cc5)cc4C3)c2C1 [Example 479, 4-(6,6-dimethyl-5,6-dihydroquinazolin-4-yl)-7-[4-(1H-imidazo-2-yl)phenyl]-2,3,4,5-tetrahydro-1,4-benzoxazepine]
≤ 10 | CC(C)(N)CNS(=O)(=O)c1cc(-c2ccc3c(c2)CN(c2ncnc4c2CC(C)(C)CC4)CCO3)cnc1N [Example 406, 2-amino-N-(2-amino-2-methylpropyl)-5-[4-(6,6-dimethyl-5,6,7,8-tetrahydroquinazolin-4-yl)-2,3,4,5-tetrahydro-1,4-benzoxazepin-7-yl]pyridine-3-sulfonamide]
10 to 50 | CC(C)(CN)CNS(=O)(=O)c1cc(-c2ccc3c(c2)CN(c2ncnc4c2CC(C)(C)CC4)CCO3)cnc1N [Example 411, 2-amino-N-(3-amino-2,2-dimethylpropyl)-5-[4-(6,6-dimethyl-5,6,7,8-tetrahydroquinazol-4-yl)-2,3,4,5-tetrahydro-1,4-benzoxazepin-7-yl]pyridine-3-sulfonamide]
≥ 2000 | Cc1nc2ccc(-c3ccc4c(c3)CN(c3ncnc5scc(C)c35)CCO4)cc2[nH]1 [Example 47, 7-(2-methyl-1H-benzimidazol-6-yl)-4-(5-methylthieno[2,3-d]pyrimidin-4-yl)-2,3,4,5-tetrahydro-1,4-benzoxazepine]
1000 to 2000 | c1cc(N2CCOc3ccc(-c4cnc5nc[nH]c5c4)cc3C2)ncn1 [Example 543, 7-(1H-imidazo[4,5-b]pyridin-6-yl)-4-pyrimidin-4-yl-2,3,4,5-tetrahydro-1,4-benzoxazepine]
50 to 250 | Cc1nc2ncc(-c3ccc4c(c3)CN(c3ncnc5c3CC(F)(F)CC5)CCO4)cc2[nH]1 [Example 471, 4-(6,6-difluoro-5,6,7,8-tetrahydcroquinazolin-4-yl)-7-(2-methyl-1H-imidazo[4,5-b]pyridin-6-yl)-2,3,4,5-tetrahydro-1,4-benzoxazepine]
250 to 1000 | COc1cc2c(N3CCOc4ccc(-c5ccc6nc(C)[nH]c6c5)cc4C3)ncnc2cc1OCc1ccccc1 [Example 10]
